Measured values reported in patent publication US20150005506A1, “THERAPEUTIC AGENT FOR DIABETES” (Teijin Pharma Limited, priority 2012, published 2015).

Experiments:
Assay type in all cases: in vivo, C57BL/6J mice
[1] = system: mice loaded with a high-fat diet; experiment: Random blood glucose level in mice loaded with high-fat diet; details: 3 mg/kg/day in drinking water, 10 weeks, mean ± standard deviation, n = 9 to 10
Experimental: (§1) Male C57BL/6J mice (age of 8 weeks) were loaded with a high-fat diet, with the proportion of fat-derived calories over total calories (Fat Kcal %) of 60%. Herewith, insulin resistance, impaired glucose tolerance, and diabetes mellitus are developed. In a group of febuxostat treatment (Febuxostat group), febuxostat was dissolved in tap water at a dose of 3 mg/kg/day and was administered to the mice as daily drinking water at the same time of the initiation of loading with a high-fat diet. Mice in the Vehicle group were given tap water. Moreover, in the normal animal group, mice were reared with a regular diet and tap water in the same period as the Febuxostat group and the Vehicle group. Ten weeks after the start of the high-fat diet and the administration of febuxostat, an insulin tolerance test was carried out to assess random blood glucose levels and insulin resistance. More specifically, 1.5 U/kg of insulin was intraperitoneally administered to the mice and blood glucose levels were measured at 0 minute, 30 minutes, 60 minutes, 90 minutes, 120 minutes after the administration of insulin. […] Blood glucose levels were measured at 120 minutes after the administration of glucose. […]

[2] = system: mice loaded with a high-fat diet; experiment: Insulin tolerance test in mice loaded with high-fat diet; details: 3 mg/kg/day in drinking water, 10 weeks
Experimental: Male C57BL/6J mice (age of 8 weeks) were loaded with a high-fat diet, with the proportion of fat-derived calories over total calories (Fat Kcal %) of 60%. Herewith, insulin resistance, impaired glucose tolerance, and diabetes mellitus are developed. In a group of febuxostat treatment (Febuxostat group), febuxostat was dissolved in tap water at a dose of 3 mg/kg/day and was administered to the mice as daily drinking water at the same time of the initiation of loading with a high-fat diet. Mice in the Vehicle group were given tap water. Moreover, in the normal animal group, mice were reared with a regular diet and tap water in the same period as the Febuxostat group and the Vehicle group. Ten weeks after the start of the high-fat diet and the administration of febuxostat, an insulin tolerance test was carried out to assess random blood glucose levels and insulin resistance. More specifically, 1.5 U/kg of insulin was intraperitoneally administered to the mice and blood glucose levels were measured at 0 minute, 30 minutes, 60 minutes, 90 minutes, 120 minutes after the administration of insulin. Moreover, 12 weeks after the initiation of the high-fat diet and the administration of febuxostat, 0.5 g/kg of glucose was intraperitoneally administered to the mice starved for 4 hours to assess 2-hour blood glucose levels after glucose load. Blood glucose levels were measured at 120 minutes after the administration of glucose. Moreover, on the last day of the administration, blood sampling was carried out to measure blood uric acid levels.

[3] = system: mice loaded with a high-fat diet; experiment: Blood glucose levels 2 hours after glucose load in mice loaded with high-fat diet; details: 0.5 g/kg glucose i.p. after 4 hours starvation, 3 mg/kg/day in drinking water, 12 weeks
Experimental: as §1

[4] = system: mice loaded with a high-fat diet; experiment: Blood uric acid levels in mice loaded with high-fat diet; details: last day of administration, 3 mg/kg/day in drinking water
Experimental: as §1

[5] = system: mice loaded with a high-fat diet; experiment: Glucose tolerance test in mice loaded with high-fat diet (Example 2); details: 3 mg/kg/day in drinking water, 12 weeks
Experimental: Male C57BL/6J mice (8 week-old) were loaded with a high-fat diet with the proportion of fat-derived calories over the total calories (Fat Kcal %) of 60%. Herewith, insulin resistance, impaired glucose tolerance, and diabetes mellitus are developed. At the same time of the initiation of loading high-fat diet, febuxostat dissolved in tap water at 3 mg/kg/day was administered to mice as drinking water in the Febuxostat group and mice in the Vehicle group were reared by administration of tap water as drinking water. Twelve weeks after the loading of a high-fat diet and the administration of febuxostat, a glucose tolerance test was carried out to assess impaired glucose tolerance. More specifically, the mice were made to fast for 4 hours; thereafter 0.5 g/kg of glucose was intraperitoneally administered to the mice. And blood sampling was conducted at 0 minute, 15 minutes, 30 minutes, 60 minutes, 90 minutes, and 120 minutes after glucose load respectively to measure glucose levels.

With `Cc1nc(-c2ccc(OCC(C)C)c(C#N)c2)sc1C(=O)O` [Febuxostat, 2-(3-cyano-4-isobutyloxyphenyl)-4-methyl-5-thiazole carboxylic acid] the “Random blood glucose level” value [1] was 244 ± 7 mg/dL, the “Ratio of blood glucose levels relative to the value before insulin administration” value ([2]; 30 min after 1.5 U/kg insulin i.p.) was 66 ± 4% and the “Ratio of blood glucose levels relative to the value before insulin administration” value ([2]; 60 min after 1.5 U/kg insulin i.p.) was 62 ± 3%. The “Ratio of blood glucose levels relative to the value before insulin administration” value ([2]; 90 min after 1.5 U/kg insulin i.p.) was 71 ± 4%, the “Ratio of blood glucose levels relative to the value before insulin administration” value ([2]; 120 min after 1.5 U/kg insulin i.p.) was 91 ± 5% and the “Blood glucose level AUC (0-2 hour)” value ([2]; after 1.5 U/kg insulin i.p.) was 371 ± 17 mg·h/dL. For the same compound, the “Blood glucose levels 2 hours after glucose load” value [3] was 396 ± 18 mg/dL, the “Blood uric acid levels” value [4] was 0.7 ± 0.1 mg/dL and the Blood glucose levels ([5]; 0 min after 0.5 g/kg glucose i.p., n = 5 to 6) was 214 ± 17 mg/dL. For the same compound, the Blood glucose levels ([5]; 15 min after 0.5 g/kg glucose i.p.) was 368 ± 29 mg/dL, the Blood glucose levels ([5]; 30 min after 0.5 g/kg glucose i.p.) was 378 ± 26 mg/dL and the Blood glucose levels ([5]; 60 min after 0.5 g/kg glucose i.p.) was 349 ± 35 mg/dL. It also gave a Blood glucose levels ([5]; 90 min after 0.5 g/kg glucose i.p.) of 323 ± 43 mg/dL and a Blood glucose levels ([5]; 120 min after 0.5 g/kg glucose i.p.) of 279 ± 31 mg/dL.
